Data set [1] relates to IL-1β stimulated IL-8 secretion in human umbilical vein endothelial cells (HUVECs). In words: IL-1β stimulated IL-8 secretion assay in HUVEC cells (ELISA). The class given is cell-based. As to conditions: 0.5 ng/ml IL-1β; for IC50: 24 h, IL-8 ELISA; for inhibition at 1 µM: 1 μM compound, read-out: % Inhib at 1 μM; for inhibition at 1 µM / inhibition at 10 µM: IL-8 secretion; for inhibition at 10 µM: 10 μM compound, read-out: % Inhib at 10 μM. As to the method: Anti-inflammatory screening was established in human umbilical vein endothelial cells (HUVECs) to screen the test compounds for their ability to inhibit IL-1β stimulated IL-8 secretion from these cells. The level of secreted IL-8 in the HUVEC media was detected using a Quantikine™ Sandwich Enzyme-Linked Immunosorbent Assay (ELISA) from R&D Systems.
Cells and media were obtained from Cascade Biologics™ via Invitrogen. HUVECs were seeded in sterile 96-well tissue culture treated plates (0.1 ml per well, containing 2,400 cells; 8000 cells/cm^2). The seeded plates were incubated in a humidified incubator at 37 C/5% CO2. After 24 h, the media was replaced with fresh media (80 μl). The test compounds were serially diluted from 10 mM DMSO stocks with media to obtain dilutions 10× the final concentration. The compounds (10 μl) were added to the plates 30 min prior to the addition of 10 μl of 5 ng/ml stimulant IL-1β (final concentration 0.5 ng/ml). After incubating for 24 h, the plates were centrifuged at 200×g for 5 min (room temperature) and the media from each well transferred to a 96-well storage plate. Basal samples were assayed neat, but media from IL-1β stimulated cells was diluted in the calibrator diluent accompanying the IL-8 ELISA kit. The ELISA was performed according to the manufacturer's instructions.
A dose of 0.5 ng/ml IL-1β was chosen as a submaximal dose to observe the inhibition of IL-8 secretion with the test compounds.
Test compounds were initially screened at 10^−5M and 10^−6M for their ability to inhibit IL-1β stimulated IL-8 secretion (Table 1).
In general terms: ELISA stands for enzyme-linked immunosorbent assay.

Data set [2] has the same test system. The data set is described as above. The class given is cell-based. As to conditions: 24-well format, increasing doses.
Data set [3] concerns IL-1β stimulated IL-6 secretion in HUVECs. The experiment in a line: IL-1β stimulated IL-6 secretion in HUVECs (ELISA). As to conditions: increasing doses of compound. The class given is cell-based, human. How it is done:
(§1) The HUVEC IL1β secretion assay was performed using a 24-well plate format similar to that described for IL-8 secretion above (0.5 ml per well containing 16,000 cells; 8000 cells/cm^2). Media was collected from untreated cells (basal) and cells treated with either 0.5 ng/ml IL-1β only, 10^−5M compound (2) only or IL-1β stimulated plus compound (2). Media from 2 wells were pooled for each condition.
(§2) Using the results of the protein array, the effect of compound (2) on the secretion of five other cytokines stimulated by IL-1β was also measured in HUVECs. These included: GROα, MCP-1, GM-CSF, sICAM-1 and IL-6. The HUVECs were seeded in sterile 24-well tissue culture treated plates (as described above). The cells were treated with increasing doses of compound (2) prior to stimulating with IL-1β as described above. All cytokines were measured using the appropriate Quantikine® Sandwich ELISA from R&D Systems according to the manufacturer's instructions.

The subject of data set [4] is IL-1β stimulated MCP-1 secretion in HUVECs. The experiment in a line: IL-1β stimulated MCP-1 secretion in HUVECs (ELISA). The class given is cell-based, human. To be noted: increasing concentration of compound. How it is done:
as §1, §2

The subject of data set [5] is BALB/c mice, oxazolone-induced ear edema. The experiment in a line: Mouse allergic contact dermatitis model induced by oxazolone, topical application, ear swelling. The data set is classed as in vivo. As to conditions: for effect on inflammation in mouse allergic contact dermatitis model: topical application, 0.3-3 mg/ear x2, result in words. How it is done:
BALB/c derived male mice, weighing 23±2 g were housed in individually ventilated cages racks (IVC Racks, 36 Mini Isolator systems) throughout the experiment. Five mice per group were kept in a cage (in cm, 26.7 length×20.7 width×14.0 height) and maintained under controlled temperature (21-23° C.) and humidity (50%-70%) with 12-hour light/dark cycles. The animals were given free access to sterilized lab chow and reverse osmosis (RO) water ad libitum. All aspects of this work, i.e. housing, experimentation and disposal of animals, are performed in general accordance with the Guide for the Care and Use of Laboratory Animals (National Academy Press, Washington, D.C., 1996).
Compound (2) was prepared as 150, 50 and 15 mg/ml in vehicle, acetone:ethanol/1:1. The preshaven abdomens of five groups of 5 BALB/c test mice were sensitized by application of 100 μL of 1.5% oxazolone solution dissolved in acetone. Seven days after the initial sensitization, test substance (0.3, 1 and 3 mg in 20 μl/ear) and vehicle (acetone:ethanol/1:1, 20 μL/ear) were each administered topically to the anterior and posterior surfaces of the right ear 30 minutes before and 15 minutes after challenge by the second application of oxazolone (1% in acetone, 20 μL/ear). As a positive control, dexamethasone (0.1 mg/ear) was administered topically using the same treatment regime as the test compound. Twenty-four hours after the second application of oxazolone, the ear thickness of each mouse was measured with a Dyer model micrometer gauge. Ear edema was calculated by subtracting the thickness of the left ear (normal control) from the right ear (treated ear). Percent inhibition was calculated according to the formula: [(Ic−It)/Ic]×100%, where Ic and It refer to increase of ear thickness (mm) in control and treated mice, respectively. A 30 percent or more (30%) inhibition in ear swelling relative to the vehicle control is considered significant and indicates possible anti-inflammatory activity.

For data set [6], the system named is IL-1β stimulated GM-CSF secretion in HUVECs. The experiment in a line: IL-1β stimulated GM-CSF secretion in HUVECs (ELISA). The class given is cell-based, human. As to conditions: increasing doses of compound. How it is done:
as §1, §2

The nature of data set [7]: Solubility of the topical formulation in vehicle acetone:ethanol/1:1. The class given is physicochemical. As to conditions: 150, 50 and 15 mg/ml in acetone:ethanol/1:1.
Data set [8] relates to IL-1β stimulated GROα secretion in HUVECs. The experiment in a line: IL-1β stimulated GROα secretion in HUVECs (ELISA). The class given is cell-based, human. To be noted: increasing concentration of compound. As to the method: as §1, §2

What is called IC50 is the midpoint of a concentration-inhibition curve. A low value points to greater potency in that assay.

`Cc1ccncc1-c1c(Cl)c(C(N)=O)c2n1CCCC2` [Compound 9, 2-Chloro-3-(4-methyl-pyridin-3-yl)-5,6,7,8-tetrahydro-indolizine-1-carboxylic acid amide]: in data set [1], the IC50 turned out to be 510 nM, the inhibition at 1 µM came out at 42.2% and the inhibition at 10 µM was found to be 49.6%.
Turning to `NC(=O)c1c(Cl)c(-c2cccnc2)n2c1C(O)CCC2` (stereo not shown) [Compound 5, 2-Chloro-8-hydroxy-3-pyridin-3-yl-5,6,7,8-tetrahydro-indolizine-1-carboxylic acid amide], in data set [1], it took 760 nM to reach half-maximal inhibition (IC50), the inhibition at 1 µM was 29% and the inhibition at 10 µM was 52.4%.
As to `Cc1ccncc1-c1cc(C#N)c2n1CCCC2` [Compound 3, 3-(4-Methyl-pyridin-3-yl)-5,6,7,8-tetrahydro-indolizine-1-carbonitrile], in data set [1], the inhibition at 1 µM amounted to 34.4% and the inhibition at 10 µM was 35%.
As to `NC(=O)c1c(Cl)c(-c2cccnc2)n2c1CCCC2` [Compound 2, 2-Chloro-3-pyridin-3-yl-5,6,7,8-tetrahydro-indolizine-1-carboxamide], the “effect on IL-1β stimulated IL-8 secretion” value in data set [2] is “inhibited IL-8 and GM-CSF to a similar extent”. In addition, the “effect on IL-1β stimulated IL-6 levels” value in data set [3] is reported as “increased IL-6 levels further”. For the same compound, in data set [4], the “effect on IL-1β stimulated MCP-1” value was “little effect”. The “inhibition of ear swelling relative to vehicle control” value in data set [5] (0.3 mg/ear x2 topical, 30 min before and 15 min after oxazolone challenge, measured at 24 h) came to 25%; in data set [5] (1 mg/ear x2 topical, 30 min before and 15 min after oxazolone challenge, measured at 24 h), 29%; in data set [5] (3 mg/ear x2 topical, 30 min before and 15 min after oxazolone challenge, measured at 24 h) it was 40%. Besides, the “effect on inflammation in mouse allergic contact dermatitis model” value in data set [5] (listed as compound 2) was “not as potent as dexamethasone”; in data set [5] (listed as compound (2)), “dose dependently inhibited inflammation”. The compound also had an IC50 in data set [1] of 350 nM. Also, the inhibition at 1 µM in data set [1] stood at 49.4%. In addition, the inhibition at 10 µM in data set [1] stood at 59.5%. The “effect on IL-1β stimulated GM-CSF levels” value in data set [6] is “dose dependently decreased”. The solubility of formulation result in data set [7] is listed as “not completely soluble”. In addition, the “reduction of IL-1β stimulated GROα levels” value in data set [8] is listed as around 25%.
With `NC(=O)c1cc(-c2cccnc2)n2c1CCCC2` [Compound 1, 3-pyridin-3-yl-5,6,7,8-tetrahydro-indolizine-1-carboxamide], in data set [1], the inhibition at 1 µM is 31.8% and the inhibition at 10 µM is 34.7%.
For `N#Cc1c(Cl)c(-c2cccnc2)n2c1C(=O)C(Cl)(Cl)CC2` [Compound 10, 2,7,7-Trichloro-8-oxo-3-pyridin-3-yl-5,6,7,8-tetrahydro-indolizine-1-carbonitrile], in data set [1], the inhibition at 1 µM was found to be 18.8% and the inhibition at 10 µM is 35.7%.
The corresponding values for `N#Cc1c(Cl)c(-c2cccnc2)n2c1C(O)CCC2` (stereo not shown) [Compound 6, 2-Chloro-8-hydroxy-3-pyridin-3-yl-5,6,7,8-tetrahydro-indolizine-1-carbonitrile] are 52.2% and 21.8%.
For `C[C@@H]1C[C@H]2[C@@H]3CCC4=CC(=O)C=C[C@]4(C)[C@@]3(F)[C@@H](O)C[C@]2(C)[C@@]1(O)C(=O)CO` [dexamethasone, reference compound], the “inhibition of ear swelling relative to vehicle control” value in data set [5] (0.1 mg/ear topical, same regime, positive control) was found to be 72%.
On to `Cc1ccncc1-c1cc(C(N)=O)c2n1CCCC2` [Compound 4, 3-(4-Methyl-pyridin-3-yl)-5,6,7,8-tetrahydro-indolizine-1-carboxylic acid amide], for which, in data set [1], the inhibition at 1 µM was determined as 15.9% and the inhibition at 10 µM turned out to be 30.8%.
For the compound `COC1CCCn2c(-c3cccnc3)c(Cl)c(C(N)=O)c21` (stereo not shown) [Compound 7, 2-Chloro-8-methoxy-3-pyridin-3-yl-5,6,7,8-tetrahydro-indolizine-1-carboxylic acid amide], in data set [1], the inhibition at 1 µM came out at 1.4% and the inhibition at 10 µM was 32.1%.
As to `NC(=O)c1c(Cl)c(-c2cccnc2)n2c1C(=O)CCC2` [Compound 11, 2-Chloro-8-oxo-3-pyridin-3-yl-5,6,7,8-tetrahydro-indolizine-1-carboxylic acid amide], in data set [1], the inhibition at 1 µM is 32.9% and the inhibition at 10 µM amounted to 31.7%.
The corresponding values for `Cc1ccncc1-c1c(Cl)c(C#N)c2n1CCCC2` [Compound 8, 2-Chloro-3-(4-Methyl-pyridin-3-yl)-5,6,7,8-tetrahydro-indolizine-1-carbonitrile] are 5.5% and 39.6%.
Turning to `NC(=O)c1c(Cl)c(-c2cccnc2)n2c1C=CCC2` [Compound 12, 2-Chloro-3-pyridin-3-yl-5,6-dihydro-indolizine-1-carboxylic acid amide], in data set [1], the concentration for half-maximal inhibition (IC50) was found to be 1600 nM, the inhibition at 1 µM was determined as 22.7% and the inhibition at 10 µM amounted to 52.7%.

For the origin of these results see patent US20110184011A1, “Compounds” (SELCIA LIMITED, priority 2008, published 2011).
